Test results as given in patent US8546428B2 (priority 2006, dated 2013).

System: Mycobacteria including drug resistant strains, in particular Mycobacterium tuberculosis, M. bovis, M. avium, M. leprae and M. marinum
Assay type: cell-based

## COc1nc2ccc(Br)cc2cc1[C@@H](c1ccccc1)[C@@](O)(CCN(C)C)c1cccc2ccccc12.O=C(O)/C=C/C(=O)O [Present fumarate salt, (alpha S, beta R)-6-bromo-alpha-[2-(dimethylamino)ethyl]-2-methoxy-alpha-1-naphthalenyl-beta-phenyl-3-quinolineethanol (2E)-2-butenedioate (1:1)]
  activity against Mycobacteria: shows activity
